# Experimental data from publication doi:10.1101/2024.03.05.583521v1 (biorxiv, 2024).
# T1: PIB-1 (Pseudomonas aeruginosa, UniProt Q9HT32)
# T1 sequence (Q9HT32 28-414): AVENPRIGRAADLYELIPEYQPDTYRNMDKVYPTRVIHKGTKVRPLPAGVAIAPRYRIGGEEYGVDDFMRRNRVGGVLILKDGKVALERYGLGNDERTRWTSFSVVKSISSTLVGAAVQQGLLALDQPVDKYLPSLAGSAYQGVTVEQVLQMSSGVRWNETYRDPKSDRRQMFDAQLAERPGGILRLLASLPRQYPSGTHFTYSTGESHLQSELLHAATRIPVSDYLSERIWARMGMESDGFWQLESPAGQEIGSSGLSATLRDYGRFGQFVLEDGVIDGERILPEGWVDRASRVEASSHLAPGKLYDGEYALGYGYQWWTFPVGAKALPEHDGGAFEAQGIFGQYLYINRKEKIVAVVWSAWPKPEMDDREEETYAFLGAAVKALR
# What was measured:
# PIB-1 [1] = biological target: T1, PIB-1; test: isothermal titration calorimetry; assay type: binding
# PIB-1 [2] = biological target: T1, PIB-1; test: intrinsic protein fluorescence quenching; assay type: binding
# purified protein = substrate: O=C(Cc1cccs1)N[C@@H]1C(=O)N2C(C(=O)O)=C(/C=C/c3ccc([N+](=O)[O-])cc3[N+](=O)[O-])CS[C@H]12; test: purified protein; settings: no added metal, 10 mM Na-HEPES pH 7.5, 100 mM NaCl, 37 °C
molecule,measurement,setting,value
C[C@@H](O)[C@H]1C(=O)N2C(C(=O)O)=C(SCCN=CN)C[C@H]12 [imipenem],Kd,PIB-1 [1],79.8 ± 5.9 µM
C[C@@H](O)[C@H]1C(=O)N2C(C(=O)O)=C(S[C@@H]3CN[C@H](C(=O)N(C)C)C3)[C@H](C)[C@H]12 [meropenem],Kd,PIB-1 [2],74.8 ± 10.3 µM
PIB-1 (Pseudomonas aeruginosa PAO1) (protein) AVENPRIGRAADLYELIPEYQPDTYRNMDKVYPTRVIHKGTKVRPLPAGVAIAPRYRIGGEEYGVDDFMRRNRVGGVLILKDGKVALERYGLGNDERTRWTSFSVVKSISSTLVGAAVQQGLLALDQPVDKYLPSLAGSAYQGVTVEQVLQMSSGVRWNETYRDPKSDRRQMFDAQLAERPGGILRLLASLPRQYPSGTHFTYSTGESHLQSELLHAATRIPVSDYLSERIWARMGMESDGFWQLESPAGQEIGSSGLSATLRDYGRFGQFVLEDGVIDGERILPEGWVDRASRVEASSHLAPGKLYDGEYALGYGYQWWTFPVGAKALPEHDGGAFEAQGIFGQYLYINRKEKIVAVVWSAWPKPEMDDREEETYAFLGAAVKALR,Km,purified protein,95.3 ± 8.9 µM
same,kcat,purified protein,0.0041 ± 0.0005 s⁻¹
